Data as given in patent US5378844A, “8-(1-aminocycloalkyl)-1,3-dialkylxanthine derivatives, preparation process and antidepressant, nootropic and psychostimulant composition thereoff” (Biomedica Foscama Industria Chimico-Farmaceutica S.p.A., priority 1992, dated 1995).
Like-named read-outs stand apart in the source and are kept apart here.

Key:
[1] = tested on: White male CD 1 (Charles River) mice; assay: Nootropic activity: "Passive avoidance" test (amnesia induced by scopolamine); format: in vivo; conditions: scopolamine 2 mg/kg i.p.
[2] = tested on: Male Wistar (Charles River) rats; assay: Locomotor activity: "Activity cage" test; format: in vivo; conditions: Rattus norvegicus, ip, read-out: DE50 (ED50 for % increase of spontaneous motion activity)
Description: This test allows the spontaneous locomotor activity of the animal to be studied. Male Wistar (Charles River) rats weighing 150-250 g were used. […] The printer connected to the system records the number of movements performed by the rats within the first 5' from the moment they enter the cage.

[3] = tested on: White male CD 1 (Charles River) mice; assay: Antidepressant activity: "Behavioral despair" test (Porsolt); format: in vivo; conditions: relative to control group
Method: The test described in R. D. Porsolt et al., Arch.Int.Pharmacodyn. 229, 327 (1977), which allows the antidepressant activity of a drug to be evaluated on an animal placed in an unusual, stress-causing environment, such as the water environment, was carried out. White male CD 1 (Charles River) mice weighing 24-35 g were used.
1 h before the immersion in water, the animal is administered the test compound by the intraperitoneal (i.p.) route. […] As the reference substances the xanthines theophylline and caffeine, the nootropically acting drug oxiracetam and the tricyclic antidepressant desipramine were included.

[4] = tested on: Male white CD 1 (Charles River) mice; assay: Antidepressant activity: antagonism to reserpine (hypothermia induced by reserpine); format: in vivo; conditions: 4 h after reserpine 2.5 mg/kg i.p.
Method: Male white CD 1 (Charles River) mices weighing 23-35 g were used. Before every test, the basal rectal temperature of every mouse is registered. […] The rectal temperature is measured again at t=O and 30', 60', 90' and 120' after administration of the drug.

adenosine A1 receptors = target: T1, adenosine A1 receptors (Rattus norvegicus, UniProt P25099); assay: Binding to the adenosine A1 receptors, (3H)-DPCPX displacement, synaptosomal membranes from rat brain; conditions: for Ki: rat brain synaptosomal membranes, 0.3 nM (3H)-DPCPX, 1 h at 25° C., pH 7.4, Ki from IC50 via Cheng-Prusoff
T1 construct: preparations of sinaptosomial membranes from rat brain; from tissue; host or cells: rat brain synaptosomal membranes
T1 sequence (P25099 1-326): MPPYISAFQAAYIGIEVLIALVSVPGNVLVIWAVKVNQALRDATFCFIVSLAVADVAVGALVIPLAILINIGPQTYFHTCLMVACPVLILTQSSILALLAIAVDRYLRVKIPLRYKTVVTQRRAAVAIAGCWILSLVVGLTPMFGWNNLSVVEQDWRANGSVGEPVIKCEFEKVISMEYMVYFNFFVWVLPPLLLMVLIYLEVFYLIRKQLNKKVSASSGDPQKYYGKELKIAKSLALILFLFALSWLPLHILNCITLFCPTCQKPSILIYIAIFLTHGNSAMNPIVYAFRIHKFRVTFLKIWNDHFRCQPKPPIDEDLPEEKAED
Method: The receptor binding tests were carried out on preparations of sinaptosomial membranes from rat brain. Binding to the A1 receptors has been carried out as follows: 200 μg of membrane proteins were incubated for 1 h at 25° C. with the test substance and 0.3 nM (3H)-DPCPX in 400 μl of 50 mM tris-HCl pH=7.4. The non-specific binding was determined with 20 μM R-PIA. The binding to the A2 receptors was carried out by incubating 200 μg of membrane proteins for 1 h at 25° C. with the test substance, 4 nM (3H)-NECA and 50 nM CPA. The non-specific binding was determined with 200 μM CPA. The incubations were blocked by centrifugal methods and the separation of the bound from free material was carried out, followed by determination of the contained radioactivity by liquid scintillation. The dosis-inhibition curves were obtained by assaying the receptor displacement at 14 different concentrations of the test substance (all the tests are carried out in triplicate). The tested substances were dissolved into dimethylsulfoxide and diluted in 50 mM Tris-HCl, buffer pH=7.4. The IC50 values were determined by means of non-linear regression curves and transformed into Ki values according to the Cheng-Prusoff equation.

adenosine A2 receptors = target: T2, adenosine A2 receptors (Rattus norvegicus, UniProt P30543); assay: Binding to the adenosine A2 receptors, (3H)-NECA + 50 nM CPA, synaptosomal membranes from rat brain; conditions: 4 nM (3H)-NECA and 50 nM CPA, 1 h at 25° C., Ki from IC50 via Cheng-Prusoff
T2 construct: preparations of sinaptosomial membranes from rat brain; from tissue; host or cells: rat brain synaptosomal membranes
Method: The receptor binding tests were carried out on preparations of sinaptosomial membranes from rat brain.
200 μg of membrane proteins were incubated for 1 h at 25° C. with the test substance and 0.3 nM (3H)-DPCPX in 400 μl of 50 mM tris-HCl pH=7.4. The non-specific binding was determined with 20 μM R-PIA. The binding to the A2 receptors was carried out by incubating 200 μg of membrane proteins for 1 h at 25° C. with the test substance, 4 nM (3H)-NECA and 50 nM CPA. The non-specific binding was determined with 200 μM CPA.
The incubations were blocked by centrifugal methods and the separation of the bound from free material was carried out, followed by determination of the contained radioactivity by liquid scintillation. The dosis-inhibition curves were obtained by assaying the receptor displacement at 14 different concentrations of the test substance (all the tests are carried out in triplicate). The tested substances were dissolved into dimethylsulfoxide and diluted in 50 mM Tris-HCl, buffer pH=7.4. The IC50 values were determined by means of non-linear regression curves and transformed into Ki values according to the Cheng-Prusoff equation.

[5] = dose 10 (unit not given), i.p. 1 h before acquisition trial
[6] = 30' before activity cage, movements within first 5', relative to control group
[7] = 10 mg/kg i.p., 1 h before immersion

T2 sequence (P30543 whole entry): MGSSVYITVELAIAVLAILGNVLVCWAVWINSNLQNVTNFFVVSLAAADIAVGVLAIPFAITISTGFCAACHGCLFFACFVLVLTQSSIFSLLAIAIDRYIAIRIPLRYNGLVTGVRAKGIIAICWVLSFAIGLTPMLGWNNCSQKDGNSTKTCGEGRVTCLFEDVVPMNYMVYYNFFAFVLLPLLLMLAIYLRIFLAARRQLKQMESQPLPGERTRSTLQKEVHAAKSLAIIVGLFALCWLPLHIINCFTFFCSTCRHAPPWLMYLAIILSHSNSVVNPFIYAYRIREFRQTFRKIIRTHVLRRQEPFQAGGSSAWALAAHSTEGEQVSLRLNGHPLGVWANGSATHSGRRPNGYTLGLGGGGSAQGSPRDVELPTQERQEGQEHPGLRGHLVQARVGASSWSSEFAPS

## Cn1c(=O)c2[nH]c(-c3ccccc3)nc2n(C)c1=O [8-PHENYLTHEOPHYLINE]
[1]; [5]
  ANTIAMNESIC ACTIVITY (percentage of animals that do not trespass the door): 40%
[2]; [6]
  ED50: 6.01 mg/kg

## Cn1c(=O)c2c(ncn2C)n(C)c1=O [CAFFEINE]
[3]; 25 mg/kg (os)
  % VARIATION OF MOTI[…] LENGTH: -30.34%
[4]; 20 mg/kg i.p.
  Δ TEMPERATURE (maximum temperature variation relative to t=0): +1.63 °C
[1]; [5]
  ANTIAMNESIC ACTIVITY (percentage of animals that do not trespass the door): 60%
[2]
  ED50: 4.33 mg/kg

## CCCn1c(=O)c2[nH]c(C3(N)CCCC3)nc2n(CCC)c1=O [COMPOUND EX. 1, 8-(1-aminocyclopentyl)-1,3-dipropylxanthine]
Adenosine A1 receptors
  Ki: 26 nM
Adenosine A1 receptors; ratio of Ki,A2 to Ki,A1
  SELECTIVITY (A2/A1): 2100
Adenosine A2 receptors
  Ki: 54600 nM
[3]; [7]
  % VARIATION OF MOTIONLESSNESS TIME LENGTH: -28.33%
[3]; 20 mg/kg i.p., 1 h before immersion
  % VARIATION OF MOTIONLESSNESS TIME LENGTH: -42.93%
[4]; 10 mg/kg i.p.
  Δ TEMPERATURE (maximum temperature variation relative to t=0): +0.26 °C
[4]; 20 mg/kg i.p.
  Δ TEMPERATURE (maximum temperature variation relative to t=0): +0.71 °C
[1]; [5]
  ANTIAMNESIC ACTIVITY (percentage of animals that do not trespass the door): 80%
[2]; [6]
  ED50: 0.492 mg/kg

## CCCn1c(=O)c2[nH]c(C3(NC(=O)c4ccccc4)CCCC3)nc2n(CCC)c1=O [COMPOUND EX. 6, 8-(1-benzoylaminocyclopentyl)-1,3-dipropylxanthine]
Adenosine A1 receptors
  Ki: 115 nM
[3]; [7]
  % VARIATION OF MOTIONLESSNESS TIME LENGTH: -24.22%

## CCCn1c(=O)c2[nH]c(C3(NS(C)(=O)=O)CCCC3)nc2n(CCC)c1=O [COMPOUND EX. 8, 1,3-dipropyl-8-(1-methanesulfonylaminocyclopenthyl)xanthine]
Adenosine A1 receptors
  Ki: 166 nM

## CCCn1c(=O)c2[nH]c(C3(NC(=O)OCC)CCCC3)nc2n(CCC)c1=O [COMPOUND EX. 10, 1,3-dipropyl-8-(1(N-ethoxycarbonylamino)cyclopentyl)xanthine]
Adenosine A1 receptors
  Ki: 108 nM

## CCCn1c(=O)c2[nH]c(C3(NC(=O)CC(=O)O)CCCC3)nc2n(CCC)c1=O [COMPOUND EX. 12, 1,3-dipropyl-8-(1-emimalonamidocyclopentyl)xanthine]
Adenosine A1 receptors
  Ki: 6990 nM

## CNCCCN1c2ccccc2CCc2ccccc21 [DESIPRAMINE]
[3]; 15 mg/kg i.p.
  % VARIATION OF MOTIONLESSNESS TIME LENGTH: -24.50%
[4]; 16 mg/kg i.p.
  Δ TEMPERATURE (maximum temperature variation relative to t=0): +1.39 °C
[1]; dose 45 (unit not given), i.p. 1 h before acquisition trial
  ANTIAMNESIC ACTIVITY (percentage of animals that do not trespass the door): 30%

## CNCCC=C1c2ccccc2CCc2ccccc21 [NORTRIPTYLINE]
[4]; 10 mg/kg i.p.
  Δ TEMPERATURE (maximum temperature variation relative to t=0): +2.34 °C

## NC(=O)CN1CC(O)CC1=O (stereo not drawn) [OXIRACETAM]
[3]; 500 mg/kg i.p.
  % VARIATION OF MOTIONLESSNESS TIME LENGTH: -29.07%
[1]; dose 1000 (os) (unit not given)
  ANTIAMNESIC ACTIVITY (percentage of animals that do not trespass the door): 40%

## Cn1c(=O)c2[nH]cnc2n(C)c1=O [THEOPHYLLINE, 1,3-dimethylxanthine]
[3]; 18.7 mg/kg (os)
  % VARIATION OF MOTI[…] LENGTH: -48.88%
[4]; 20 mg/kg i.p.
  Δ TEMPERATURE (maximum temperature variation relative to t=0): +0.81 °C
[1]; dose 20 (unit not given), i.p. 1 h before acquisition trial
  ANTIAMNESIC ACTIVITY (percentage of animals that do not trespass the door): 30%
[2]
  ED50: ~3.75 mg/kg
